In patent US20100324138A1, “Lipoxin A4 Protection for Retinal Cells” (priority 2007, published 2010):
Where two headings read alike, the source gives them in different places.

Key:
ARPE-19 cells [1] = assay: Inhibition of apoptosis induced by oxidative stress (TNF-α/H2O2) in RPE cells, Hoechst staining; assay type: cell-based, human; conditions: TNF-α 10 ng/ml + H2O2 600 uM, 14 h, FIG. 1
Protocol: (§1) ARPE-19 cells (L. M. Hjelmeland, ATCC #CRL-2302) were grown and maintained in DMEM-F12 medium supplemented with 10% FBS and incubated at 37° C. with a constant supply of 5% CO2. ARPE-19 cells are spontaneously transformed human retinal pigment epithelial cells that conserve cellular biological and functional properties. All chemicals were purchased from Sigma Chemical Co. (St. Louis, Mo.) unless otherwise indicated.
ARPE-19 cells growing in DMEM-F-12 medium for 72 h were serum starved for 8 h before induction of oxidative stress, as described in P. K. Mukherjee et al., “Photoreceptor outer segment phagocytosis attenuates oxidative stress-induced apoptosis with concomitant neuroportectin D1 synthesis,” PNAS, vol. 104, pp. 13158-13163 (2007). Oxidative stress was introduced by TNF-α (10 ng/ml) and H2O2 (600 uM) for 14 h and challenged with different concentrations of either lipoxin-A4 or lipoxin A4 epimer 15 (10 nM, 50 nM, and 100 nM; Calbiochem, Madison, Wis.), as indicated in FIG. 1. In initial experiments to test whether lipoxin caused stress, lipoxin A4 and lipoxin A4 epimer 15 were added to RPE cells in which oxidative stress had not been induced with TNF-α or H2O2. The apoptotic cell death was scored by Hoechst staining, as described in Mukherjee et al., 2007. The results were expressed as percentage inhibition of apoptosis by counting the Hoechst positive cells, and are shown in FIG. 1.

ARPE-19 cells [2] = assay: Apoptosis in RPE cells in which oxidative stress had not been induced (test whether lipoxin caused stress), Hoechst staining; assay type: cell-based
Protocol: as §1
ARPE-19 cells growing in DMEM-F-12 medium for 72 h were serum starved for 8 h before induction of oxidative stress, as described in P. K. Mukherjee et al., “Photoreceptor outer segment phagocytosis attenuates oxidative stress-induced apoptosis with concomitant neuroportectin D1 synthesis,” PNAS, vol. 104, pp. 13158-13163 (2007). Oxidative stress was introduced by TNF-α (10 ng/ml) and H2O2 (600 uM) for 14 h and challenged with different concentrations of either lipoxin-A4 or lipoxin A4 epimer 15 (10 nM, 50 nM, and 100 nM; Calbiochem, Madison, Wis.), as indicated in FIG. 1. […] The apoptotic cell death was scored by Hoechst staining, as described in Mukherjee et al., 2007. The results were expressed as percentage inhibition of apoptosis by counting the Hoechst positive cells, and are shown in FIG. 1.

COX-2 promoter construct = assay: Interleukin-1β induced COX-2 promoter construct (huCOX-2-LUC) luciferase assay in RPE cells; assay type: cell-based, human; conditions: IL-1β 10 ng/ml, 14 h
Protocol: COX-2 is a proinflammatory protein that participates in RPE cell injury. ARPE-19 cells were grown over night in six well plates and then transfected with huCOX-2-LUC (−830) promoter construct (5 ug) for 24 h. Transfected cells were serum starved for 8 h before the addition of IL-1β (10 ng/ml). IL-1β treated cells were challenged with 100 nM, 500 nM, and 1000 nM concentrations of lipoxin A4 and lipoxin A4 epimer 15 for 14 h. Cells were then harvested, and luciferase assays were performed using luciferin as substrate.

ARPE-19 cells [3] = assay: Lipoxins and NPD1 combined effect on apoptosis induced by oxidative stress in RPE cells; assay type: cell-based, human; conditions: NPD1 30 nM with lipoxin A4 or its analog 100 nM, 14 h; FIG. 2
Protocol: The growth of RPE cells, serum starvation, and induction of apoptosis were the same as described above in Example 1 and in Mukherjee et al., 2007. To test for a synergistic effect between lipoxin A4 and […] (NPD1), the oxidative-stressed RPE cells were treated with NPD1 (30 nM) and with lipoxin A4 or its analog (100 nM) for 14 h as indicated in FIG. 2. The percent apoptosis is expressed as described above in Example 1 as a percentage of the Hoechst positive cells.

[4] = 100, 500, 1000 nM, luciferase, FIG. 3

Question: How did the “inhibition of apoptosis in RPE cells under oxidative stress” value (ARPE-19 cells [1]; 100 nM) turn out when `CCCCC[C@H](O)/C=C/C=C\C=C\C=C\[C@@H](O)[C@@H](O)CCCC(=O)O` [lipoxin A4] was run?
Answer: highest inhibition

Question: What about the “inhibition of apoptosis in RPE cells under oxidative stress” value (ARPE-19 cells [1]; 10, 50, 100 nM) of the same compound?
Answer: able to inhibit apoptosis in RPE cells in a concentration-dependent manner

Question: What about the “induction of apoptosis in RPE cells” value (ARPE-19 cells [2]) of the same compound?
Answer: did not induce apoptosis

Question: And the “inhibition of IL-1β mediated induction of COX-2 promoter construct” value (from here on “inhibition … of COX-2 promoter construct”) (COX-2 promoter construct; 100 nM (lowest inhibition))?
Answer: 35%

Question: And the “inhibition … of COX-2 promoter construct” value (COX-2 promoter construct; 1000 nM)?
Answer: highest

Question: And the “inhibition … of COX-2 promoter construct” value (COX-2 promoter construct; [4])?
Answer: inhibit IL-1β mediated induction of COX-2 promoter construct in RPE cells in a concentration-dependent manner

Question: What about the “effect of lipoxin combined with NPD1 on oxidative stress-induced apoptosis” value (ARPE-19 cells [3]) of the same compound?
Answer: additive

Question: What does the source list for `CCCCC[C@@H](O)/C=C/C=C\C=C\C=C\[C@@H](O)[C@@H](O)CCCC(=O)O` (single isomer, unassigned; epimer 15) [lipoxin A4 epimer 15, 15-epi-lipoxin A4]?
Answer: inhibition of apoptosis in RPE cells under oxidative stress (ARPE-19 cells [1]; 100 nM): highest inhibition; inhibition of apoptosis in RPE cells under oxidative stress (ARPE-19 cells [1]; 10, 50, 100 nM): able to inhibit apoptosis in RPE cells in a concentration-dependent manner; induction of apoptosis in RPE cells (ARPE-19 cells [2]; no oxidative stress (no TNF-α or H2O2), Hoechst positive cells, FIG. 1): did not induce apoptosis; inhibition of IL-1β mediated induction of COX-2 promoter construct (COX-2 promoter construct; 100 nM (lowest inhibition)): 35%; inhibition of IL-1β mediated induction of COX-2 promoter construct (COX-2 promoter construct; 1000 nM): highest; inhibition of IL-1β mediated induction of COX-2 promoter construct (COX-2 promoter construct; [4]): inhibit IL-1β mediated induction of COX-2 promoter construct in RPE cells in a concentration-dependent manner

Question: For `CC/C=C\C[C@H](O)\C=C/C=C/C=C/[C@H](O)C/C=C\C/C=C\CCC(=O)O` [NPD1, neuroprotectin D1, reference compound], which “effect of lipoxin combined with NPD1 on oxidative stress-induced apoptosis” value (ARPE-19 cells [3]) is on record?
Answer: additive
